From ChEMBL document CHEMBL4665834 (J Med Chem, 2020) come the findings set out here.

What is called fraction unbound is the share of the substance not bound to proteins or other matrix. One may read the solubility as how much of the substance goes into solution per volume. For orientation: IC50 means the concentration needed to halve the response being measured. By bioavailability is commonly meant dose-corrected exposure relative to a reference, in per cent. The low end stands for poor availability, the high end for good availability. Broadly, the clearance is a measure of how efficiently the substance is removed, as volume per time. A lower clearance goes with a low capacity for elimination. As usually defined, the logD is lipophilicity at a set pH, counting ionised and neutral species. What is called half-life is the time in which the quantity being followed falls by half. A word on the NOAEL: it is the highest tested level that showed no adverse finding.

≈ marks a conversion by molar mass, not a printed value. Calls of active or inactive are those of the source. No cut-off for these calls is given here.

Data set [1] can be described thus: Protein binding in pooled human plasma assessed as unbound fraction incubated for 6 hrs by LC-MS/MS analysis based equilibrium dialysis method. Format: ADME, cell-free.
A short description of data set [2]: Solubility of compound at pH 1 to 7 using crystalline form of sample. The format is physicochemical.
For the next data set, the target named is Cytochrome P450 3A4 (Homo sapiens, UniProt P08684). Briefly: Inhibition of CYP3A4 in human liver microsomes using midazolam as substrate incubated for 10 mins in presence of NADPH generating system by LC-MS/MS analysis.
A short description of data set [3]: Oral bioavailability in Wistar rat at 1 to 3 mg/kg administered via gavage using EtOH/PEG400/H2O 10/40/50 formulation by LC-MS/MS analysis. The format is ADME, organism-based. The conditions noted are these: in vivo, dose 1-3 mg/kg.
Data set [4] addresses Prostaglandin F2-alpha receptor (Homo sapiens, UniProt P43088). The data set can be described thus: Antagonist activity at human FPR expressed in human Chem-1 cells assessed as inhibition of PGF2alpha-induced calcium flux preincubated for 10 mins followed by PGF2alpha stimulation and measured for 120 secs by fluo-8 AM dye based fluorescence assay. The format is functional, cell-based. On the technique in general: A change in cytosolic calcium serves as a functional read-out for many receptors and channels.

Data set [5] in a line: Clearance in Wistar rat at 0.3 to 1 mg/kg, iv administered as bolus dose or 15 mins infusion by LC-MS/MS analysis. Format: ADME, organism-based. The note with it: in vivo, dose 0.3-1 mg/kg.
A short description of data set [6]: Lipophilicity, log D of compound at pH 7.5 by HPLC analysis. The note with it: buffer.
Data set [7] can be described thus: Half life in Wistar rat at 0.3 to 1 mg/kg, iv administered as bolus dose by LC-MS/MS analysis. The conditions noted are these: in vivo, dose 0.3-1 mg/kg. The format is ADME, organism-based.
In a further data set the target is Cytochrome P450 2C8 (Homo sapiens, UniProt P10632). The data set can be described thus: Inhibition of CYP2C8 in human liver microsomes using amodiaquine as substrate incubated for 15 mins in presence of NADPH generating system by LC-MS/MS analysis. The format is ADME. (Microsomes from liver hold many membrane-bound enzymes, among them those of drug oxidation.)

In another data set the target is Cytochrome P450 1A2 (Homo sapiens, UniProt P05177). Briefly: Inhibition of CYP1A2 in human liver microsomes using phenacetin as substrate incubated for 15 mins in presence of NADPH generating system by LC-MS/MS analysis. The format is ADME.
A further data set addresses Cytochrome P450 2D6 (Homo sapiens, UniProt P10635). Briefly: Inhibition of CYP2D6 in human liver microsomes using dextromethorphan as substrate incubated for 15 mins in presence of NADPH generating system by LC-MS/MS analysis. The format is ADME.
Another data set has as its target Cytochrome P450 2C9 (Homo sapiens, UniProt P11712). Briefly: Inhibition of CYP2C9 in human liver microsomes using diclofenac as substrate incubated for 15 mins in presence of NADPH generating system by LC-MS/MS analysis. Format: ADME.
The nature of data set [8]: Oral bioavailability in Wistar rat at 1 to 3 mg/kg administered via gavage using EtOH/PEG400/H2O/DMSO 8/40/50/2 formulation by LC-MS/MS analysis. The format is ADME, organism-based. The conditions noted are these: in vivo, dose 1-3 mg/kg.
Data set [9] in a line: Clearance in Wistar rat at 0.3 to 1 mg/kg, iv administered as bolus dose by LC-MS/MS analysis. Format: ADME, organism-based. The conditions noted are these: in vivo, dose 0.3-1 mg/kg.
Data set [10] deals with Mus musculus. The data set can be described thus: Antifibrotic activity in silica-induced pulmonary fibrosis C57Bl6J mouse model assessed as decrease in lung osteopontin production at 3 to 30 mg/kg, po bid for 9 days measured post-last dose by Bio-Rad analysis. The conditions noted are these: dose mg/kg 3-30, time 9.0 day. The format is functional, organism-based.
The test system of data set [11] is Mus musculus. The data set can be described thus: Antifibrotic activity in silica-induced pulmonary fibrosis C57Bl6J mouse model assessed as decrease in lung MCP1 production at 3 to 30 mg/kg, po bid for 9 days measured post-last dose by Bio-Rad analysis. The note with it: dose mg/kg 3-30, time 9.0 day. The format is functional, organism-based.
Data set [12] addresses Prostaglandin F2-alpha receptor (Mus musculus) (UniProt P43117). The data set can be described thus: Antagonist activity at FPR in mouse NIH3T3 cells co-transfected with mtClytin assessed as inhibition of PGF2alpha-induced calcium flux preincubated for 5 mins followed by PGF2alpha stimulation and measured for 60 secs by calcium dye based fluorescence assay. The format is functional, cell-based. The conditions noted are these: filed as antagonist, time 6.0 min.

Data set [13] concerns Mus musculus. Briefly: Antifibrotic activity in silica-induced pulmonary fibrosis C57Bl6J mouse model assessed as decrease in lung IL1beta production at 3 to 30 mg/kg, po bid for 9 days measured post-last dose by Bio-Rad analysis. The format is functional, organism-based. The note with it: dose mg/kg 3-30, time 9.0 day.
The nature of data set [14]: Toxicity in Wistar rat up to 200 mg/kg/day, po administered for 14 days. The conditions noted are these: in vivo, 336 h, time 14 day. Format: organism-based.
Data set [15] is described as follows: Induction of CYP3A4 mRNA expression in human hepatocytes supplemented with fresh medium containing compounds daily for 2 days measured 24 hrs post last dose by qRT-PCR analysis. The note with it: 72 h. On the technique in general: Real-time PCR tracks product formation cycle by cycle.

Sequence of Cytochrome P450 3A4 (P08684 whole entry): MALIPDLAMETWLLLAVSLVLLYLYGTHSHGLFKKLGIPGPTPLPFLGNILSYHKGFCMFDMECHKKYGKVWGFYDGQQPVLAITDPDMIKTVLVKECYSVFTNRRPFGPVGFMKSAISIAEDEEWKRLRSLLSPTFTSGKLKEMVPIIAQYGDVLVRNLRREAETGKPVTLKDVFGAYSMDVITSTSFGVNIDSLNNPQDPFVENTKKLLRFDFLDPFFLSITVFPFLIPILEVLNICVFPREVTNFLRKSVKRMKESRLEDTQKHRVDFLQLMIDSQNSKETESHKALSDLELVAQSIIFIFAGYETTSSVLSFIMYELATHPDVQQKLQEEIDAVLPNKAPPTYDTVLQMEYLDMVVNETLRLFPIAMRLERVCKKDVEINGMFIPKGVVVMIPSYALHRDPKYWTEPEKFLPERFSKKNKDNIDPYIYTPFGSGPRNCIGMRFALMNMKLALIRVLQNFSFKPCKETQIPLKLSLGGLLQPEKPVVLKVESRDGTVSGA
Sequence of Cytochrome P450 2D6 (P10635 whole entry): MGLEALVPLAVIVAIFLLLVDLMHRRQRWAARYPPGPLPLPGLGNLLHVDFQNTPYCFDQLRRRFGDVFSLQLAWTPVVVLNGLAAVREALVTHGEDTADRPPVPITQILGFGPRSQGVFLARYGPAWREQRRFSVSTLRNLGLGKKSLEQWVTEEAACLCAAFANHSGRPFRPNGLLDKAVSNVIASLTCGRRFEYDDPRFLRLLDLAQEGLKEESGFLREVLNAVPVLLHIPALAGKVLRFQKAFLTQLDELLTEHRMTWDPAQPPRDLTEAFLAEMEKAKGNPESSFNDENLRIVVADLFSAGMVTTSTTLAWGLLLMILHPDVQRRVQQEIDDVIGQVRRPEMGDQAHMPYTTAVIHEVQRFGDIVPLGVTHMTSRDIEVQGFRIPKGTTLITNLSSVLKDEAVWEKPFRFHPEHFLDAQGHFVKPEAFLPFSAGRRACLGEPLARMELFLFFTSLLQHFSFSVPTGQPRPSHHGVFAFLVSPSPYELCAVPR
Sequence of Cytochrome P450 2C8 (P10632 whole entry): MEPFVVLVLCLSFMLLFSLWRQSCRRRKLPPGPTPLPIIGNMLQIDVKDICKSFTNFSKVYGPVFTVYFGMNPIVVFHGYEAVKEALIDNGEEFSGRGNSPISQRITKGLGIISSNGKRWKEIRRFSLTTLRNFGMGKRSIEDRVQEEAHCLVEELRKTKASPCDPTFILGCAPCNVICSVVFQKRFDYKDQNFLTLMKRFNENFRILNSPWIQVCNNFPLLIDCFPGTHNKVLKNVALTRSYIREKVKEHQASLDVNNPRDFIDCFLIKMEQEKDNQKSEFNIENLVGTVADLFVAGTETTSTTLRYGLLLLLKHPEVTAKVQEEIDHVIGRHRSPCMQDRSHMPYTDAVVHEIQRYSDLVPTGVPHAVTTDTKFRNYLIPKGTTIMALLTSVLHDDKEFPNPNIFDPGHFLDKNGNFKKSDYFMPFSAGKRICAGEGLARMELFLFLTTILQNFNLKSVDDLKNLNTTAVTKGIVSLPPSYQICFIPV
Sequence of Cytochrome P450 2C9 (P11712 whole entry): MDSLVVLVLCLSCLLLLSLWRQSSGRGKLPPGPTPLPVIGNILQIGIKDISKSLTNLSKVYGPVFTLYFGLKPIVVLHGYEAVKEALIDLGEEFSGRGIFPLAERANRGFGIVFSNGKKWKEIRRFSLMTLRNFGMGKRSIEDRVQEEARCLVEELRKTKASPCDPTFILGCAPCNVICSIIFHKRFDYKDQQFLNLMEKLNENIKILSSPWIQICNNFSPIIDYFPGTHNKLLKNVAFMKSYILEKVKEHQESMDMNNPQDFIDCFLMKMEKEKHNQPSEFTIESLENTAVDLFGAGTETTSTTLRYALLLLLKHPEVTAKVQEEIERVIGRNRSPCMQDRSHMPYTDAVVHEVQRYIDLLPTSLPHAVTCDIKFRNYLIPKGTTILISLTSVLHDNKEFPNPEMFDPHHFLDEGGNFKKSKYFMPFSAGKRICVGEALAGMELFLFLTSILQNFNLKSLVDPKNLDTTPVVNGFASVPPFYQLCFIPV
Sequence of Prostaglandin F2-alpha receptor (Mus musculus) (P43117 whole entry): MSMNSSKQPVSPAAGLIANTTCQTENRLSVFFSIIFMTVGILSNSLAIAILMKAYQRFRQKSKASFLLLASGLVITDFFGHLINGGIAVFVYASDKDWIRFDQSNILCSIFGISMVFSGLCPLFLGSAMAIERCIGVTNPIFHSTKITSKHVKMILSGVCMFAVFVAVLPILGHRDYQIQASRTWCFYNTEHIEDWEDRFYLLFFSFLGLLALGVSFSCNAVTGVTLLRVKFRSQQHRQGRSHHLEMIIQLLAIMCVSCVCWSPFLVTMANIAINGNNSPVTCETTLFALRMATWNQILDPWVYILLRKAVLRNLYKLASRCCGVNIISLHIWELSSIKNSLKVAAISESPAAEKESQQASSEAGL
Sequence of Cytochrome P450 1A2 (P05177 whole entry): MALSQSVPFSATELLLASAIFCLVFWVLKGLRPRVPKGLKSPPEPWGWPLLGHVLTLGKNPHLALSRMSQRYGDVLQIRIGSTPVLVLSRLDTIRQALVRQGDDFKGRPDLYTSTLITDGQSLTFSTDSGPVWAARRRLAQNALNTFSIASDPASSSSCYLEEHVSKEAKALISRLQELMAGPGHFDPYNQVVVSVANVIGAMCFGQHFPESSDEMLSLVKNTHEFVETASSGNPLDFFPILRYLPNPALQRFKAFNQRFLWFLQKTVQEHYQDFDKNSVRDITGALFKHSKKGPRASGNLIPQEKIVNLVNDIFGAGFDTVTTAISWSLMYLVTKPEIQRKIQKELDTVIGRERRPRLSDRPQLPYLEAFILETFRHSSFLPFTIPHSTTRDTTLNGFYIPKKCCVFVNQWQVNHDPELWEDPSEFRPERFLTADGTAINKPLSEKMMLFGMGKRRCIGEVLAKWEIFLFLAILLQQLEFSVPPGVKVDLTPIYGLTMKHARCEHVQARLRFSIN
Sequence of Prostaglandin F2-alpha receptor (P43088 whole entry): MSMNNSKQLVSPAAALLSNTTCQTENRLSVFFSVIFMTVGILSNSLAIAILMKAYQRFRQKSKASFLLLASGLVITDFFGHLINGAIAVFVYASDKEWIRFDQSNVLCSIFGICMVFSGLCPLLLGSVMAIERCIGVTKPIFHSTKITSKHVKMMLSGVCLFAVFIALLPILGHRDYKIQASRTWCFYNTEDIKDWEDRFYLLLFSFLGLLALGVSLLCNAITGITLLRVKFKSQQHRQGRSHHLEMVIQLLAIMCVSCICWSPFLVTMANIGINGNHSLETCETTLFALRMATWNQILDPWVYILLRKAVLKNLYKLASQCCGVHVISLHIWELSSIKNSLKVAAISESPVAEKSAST

`Cc1c(-c2ccccc2)nc2ccc(Br)cc2c1C(=O)Nc1ccc(C(=O)O)cc1F`: the fraction unbound at 6 h in data set [1] is 0.016. In [2], this compound came in with a solubility of 1 µg/mL (≈ 2.09 µM). Moreover, the IC50 is more than 20 µM on Cytochrome P450 3A4 and 0.027 µM in [4]. The compound also showed a bioavailability in data set [3] of 100%. In addition, in data set [5] (Wistar), the clearance was 16.7 mL/min/kg. In data set [6], this compound yielded a logD of 1.9. Moreover, in data set [7], the half-life was 3.1 h.

On to `Cc1c(-c2ccccc2)nc2ccc(Br)cc2c1C(=O)NC12CCC(C(=O)O)(CC1)CC2`, for which the IC50 on Cytochrome P450 2C8, at Cytochrome P450 1A2, on Cytochrome P450 3A4, at Cytochrome P450 2D6 and at Cytochrome P450 2C9 was more than 10 µM each time. Also, the bioavailability was 90% in data set [8] and 100% in data set [3]. This compound had a clearance in data set [9] of 0.5 mL/min/kg. Further, the half-life in data set [7] was 15 h.

`Cc1c(N2CCCC2)nc2ccc(Br)cc2c1C(=O)NC[C@H](CCC(=O)O)c1ccccc1Cl`: the outcome in the data set on Mus musculus [10], in the data set on Mus musculus [11] and with Mus musculus [13] was Active. Further, the fIC50 in [12] amounted to 5.2 nM.

With `Cc1c(-c2ccccc2)nc2ccc(Br)cc2c1C(=O)NCC(CC(=O)O)c1ccccc1Cl` (single isomer, unassigned; (+)), the IC50 at Cytochrome P450 3A4 was more than 20 µM. Also, in data set [14], the Activity result was “Non-Toxic”. The compound further showed a bioavailability in [3] of 90%. Further, the NOAEL in data set [15] was found to be 6 µM. Further, the CL in data set [5] (0.25 h) was 43.3 mL/min/kg. In data set [6], this compound gave a logD of 2. The same compound had a half-life in data set [7] of 2.6 h.
